Data set [1] is described as follows: Plasma protein binding assay (PPB), equilibrium dialysis, 10% FCS in PBS. Format: in vitro ADME. The note with it: bovine, read-out: PPB 10% FCS (% fu). An outline of the steps:
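Equilibrium dialysis (5-10 kg/mol cut-off membrane) of 1-10 μmol/L test compound in 10% FCS/PBS against PBS with or without dextran, 3-5 h at 37° C. Compound in each chamber quantified by LC-MS after protein precipitation; fu calculated from Cserum and Cbuffer.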
A general note: In equilibrium dialysis free small molecules cross a membrane that holds back macromolecules.

The test system of data set [2] is KRAS G12C-dependent Ba/F3 cells. The experiment in a line: Ba/F3 proliferation assay, KRAS G12C. Format: cell-based. The note with it: Mus musculus, BaF3, 72 h, AlamarBlue. An outline of the steps: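 Viability is measured as AlamarBlue fluorescence in Ba/F3 cells that depend on a transduced mutant KRAS isoform for growth without IL-3. Each treatment is run in technical duplicate, and dose-response curves are fitted.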

The nature of data set [3]: Metabolic (microsomal) stability assay, human liver microsomes (HLM). Format: in vitro ADME. The following applies: predicted clearance as percent of liver blood flow, 1 μM. An outline of the steps: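 LC-MS/MS tracked parent disappearance at 0, 5, 15, 30 and 60 min in NADPH-initiated incubations with 1 mg/mL human microsomal protein and 1 μM compound at 37°C, pH 7.5. First-order fits gave intrinsic clearance, which was scaled up and reported as % QH. NADPH-free controls were also run.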

For the next data set, the system named is NCI-H358 cells. The experiment in a line: NCI-H358 CTG proliferation assay (120 h) (NSCLC, G12C). Format: cell-based, human. The following applies: Homo sapiens. An outline of the steps: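 NCI-H358 cells (KRAS G12C) were seeded at 2000/well (assay 1) or 200/well (assay 2) in RPMI-1640 + 10% FCS and dosed with a logarithmic series, DMSO-normalized. After 120 h, viability was read by CellTiter-Glo luminescence as percent of DMSO control, with a T0 read at dosing. IC50 came from a four-parameter fit.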

The mark [4] stands for this setting: assay 1, CTG, read-out: H358 (assay 1) IC50.
[5] abbreviates: assay 2, CTG, read-out: H358 (assay 2) IC50.

Molecules are shown by their SMILES. Where two headings read alike, the source gives them in different places.

As for `C[C@H](Oc1cc(N2CCN(C)C2=O)nc(-c2noc3c2CCC[C@@]32CCCc3sc(N)c(C#N)c32)n1)[C@@H]1CCCN1C` [II-75], the fraction unbound in data set [1] is 0.16. The results for the half-inhibitory concentration (IC50) (in data set [2]; in the data set on NCI-H358 cells (setting [4]); with NCI-H358 cells (setting [5])) were 26 nM, 49 nM and 10 nM, respectively. For the same compound, the “HLM QH” value in data set [3] is recorded as 38%.

With `C[C@H](Oc1cc(-n2cncn2)nc(-c2noc3c2CCC[C@@]32CCCc3sc(N)c(C#N)c32)n1)[C@@H]1CCCN1C` [II-70], the fraction unbound in data set [1] stood at 0.44. Also, the IC50 in data set [2] turned out to be 25 nM; in the data set on NCI-H358 cells (setting [5]), 131 nM. In data set [3], the “HLM QH” value was 61%.

For `C[C@H](Oc1cc(N2CCOC3(CC3)C2)nc(-c2noc3c2CCC[C@@]32CCCc3sc(N)c(C#N)c32)n1)[C@@H]1CCCN1C` [II-61], the fraction unbound in data set [1] came to 0.26. Moreover, the IC50 amounted to 47 nM in data set [2] and 1420 nM in the data set with NCI-H358 cells (setting [5]). For the same compound, in data set [3], the “HLM QH” value was below 24%.

Turning to `C[C@H](Oc1cc(N2CCN(C)CC2)nc(-c2noc3c2CCC[C@@]32CCCc3sc(N)c(C#N)c32)n1)[C@@H]1CCCN1C` [II-55], the fraction unbound in data set [1] turned out to be 0.26. The figures for the half-inhibitory concentration (IC50) (in data set [2]; in the data set with NCI-H358 cells (setting [5])) were 297 nM and 588 nM, respectively. Also, the “HLM QH” value in data set [3] is recorded as below 24%.

As for `C[C@H](Oc1cc([C@@H]2CCOC2)nc(-c2noc3c2CCC[C@@]32CCCc3sc(N)c(C#N)c32)n1)[C@@H]1CCCN1C` [II-94], the fraction unbound in data set [1] came out at 0.31. The values for the IC50 (in data set [2]; in the data set on NCI-H358 cells (setting [4]); in the data set with NCI-H358 cells (setting [5])) were 5 nM, 20 nM and 20 nM, respectively. Moreover, the “HLM QH” value in data set [3] is 48%.

For `C[C@H](Oc1cc(-n2cc(Cn3ccnc3)nn2)nc(-c2noc3c2CCC[C@@]32CCCc3sc(N)c(C#N)c32)n1)[C@@H]1CCCN1C` [II-113], the fraction unbound in data set [1] amounted to 0.39. In addition, the 50% inhibitory concentration (IC50) is 25 nM in data set [2] and 128 nM in the data set on NCI-H358 cells (setting [5]). Also, in data set [3], the “HLM QH” value was 43%.

As for `C[C@H](Oc1cc(N2CC[C@H](N(C)C)C2)nc(-c2onc3c2CCC[C@@]32CCCc3sc(N)c(C#N)c32)n1)[C@@H]1CCCN1C` [I-11], the fraction unbound in data set [1] stood at 0.33. The IC50 in data set [2] was determined as 331 nM; in the data set with NCI-H358 cells (setting [5]) it was 1980 nM. Further, the “HLM QH” value in data set [3] is listed as below 24%.

In the case of `C[C@H](Oc1cc(-n2ccc(-c3ccccn3)n2)nc(-c2noc3c2CCC[C@@]32CCCc3sc(N)c(C#N)c32)n1)[C@@H]1CCCN1C` [II-119], the fraction unbound in data set [1] was found to be 0.04. Further, the half-inhibitory concentration (IC50) was found to be 8 nM in data set [2] and 42 nM with NCI-H358 cells (setting [5]). In data set [3], the “HLM QH” value is given as below 24%.

As to `CNC(=O)c1cn(-c2cc(O[C@@H](C)[C@@H]3CCCN3C)nc(-c3noc4c3CCC[C@@]43CCCc4sc(N)c(C#N)c43)n2)nn1` [II-122], in data set [1], the fraction unbound was 0.44. Further, the half-maximal inhibitory concentration (IC50) in data set [2] came out at 21 nM; in the data set with NCI-H358 cells (setting [5]) it was 823 nM. In addition, the “HLM QH” value in data set [3] is listed as 35%.

The term IC50 denotes the concentration that inhibits the measured activity by half.

(Values after US20240174690A1, “ANNULATED 2-AMINO-3-CYANO THIOPHENES AND DERIVATIVES FOR THE TREATMENT OF CANCER” (BOEHRINGER INGELHEIM INTERNATIONAL GMBH, priority 2021, published 2024).)
